Values of other authors in patent publication US10292957B2, “Compositions and methods for treating fibromyalgia” (Quality IP Holdings, LLC, priority 2012, dated 2019).

Experiments:
hGH secretion = conditions: for Effect on hGH: other amino acids, literature
[1] = tested on: fibromyalgia patients with low IGF-1 levels
[2] = tested on: patients with severe fibromyalgia and low insulin-like growth factor 1 levels
[3] = tested on: patients with fibromyalgia; conditions: 4 days treatment
[4] = after subcutaneous injection of 0.06 IU, hGH deficient subjects
[5] = tested on: women with fibromyalgia and low IGF-1 levels
HGH-deficient adults = conditions: within months of hGH treatment

N=C(N)NCCC[C@H](N)C(=O)O [arginine]
Elevation of serum hGH levels (hGH secretion; 30 g, males): 8.6 fold
Increase of hGH levels (hGH secretion; intravenous infusion of 183 mg/kg body weight, females): > 20 fold

N[C@@H](Cc1c[nH]cn1)C(=O)O [histidine]
Effect on hGH (hGH secretion): marked increases

NCCCC[C@H](N)C(=O)O [lysine]
Effect on hGH (hGH secretion): marked increases

CSCC[C@H](N)C(=O)O [methionine]
Effect on hGH (hGH secretion): marked increases

NCCC[C@H](N)C(=O)O [ornithine]
Effect on hGH (hGH secretion): marked increases

N[C@@H](Cc1ccccc1)C(=O)O [phenylalanine]
Effect on hGH (hGH secretion): marked increases

hGH: human growth hormone, injectable
Tolerability of concomitant administration with standard therapy ([1]; no patients discontinued due to adverse events): well tolerated
Reduction in the mean number of tender points (pairs) compared to the control group ([1]; subcutaneous, added to standard therapy, one year, end of study): 60%
Pain ([2]; addition to the standard treatment, sustained action over time): effective in reducing pain
FIQ scores compared with placebo group ([2]; low-dose add-on to standard treatment, 120 patients): significantly improved
Plasma IGF-1 levels [3]: increase
Plasma IGF-BP3 levels [3]: increase
Mean levels of hGH reached [4]: 0.4 ng/mL
FIQ score and tender point score over the placebo group ([5]; at nine months): significant improvement
IGF-1 levels ([5]; daily subcutaneous injections): prompt and sustained increase
Lean body mass, skin thickness and muscle mass (HGH-deficient adults): gains
